Values belong to the molecule of their own block, whether it stands above or below them.
Key:
[1] = target: CRBN-DDB1 / GST-IRAK4 ternary complex (Homo sapiens, UniProt Q96SW2+Q9NWZ3); test: AlphaLISA assay to determine ternary complex formation; type: binding
Description: The assay mixture contains 100 nM CRBN-DDB1, 100 nM GST-IRAK4, 20 μg/mL Nickle Chelate Donor Bead (Perkin Elmer Catalog # AS101D) and 20 μg/mL GSH Acceptor Bead (Perkin Elmer Catalog # AL109C) in a buffer containing 50 mM HEPES, pH 7.5, 100 mM NaCl, 0.1% BSA, 2 mM TCEP, 0.05% Tween-20. […] AlphaLISA signals (Excitation 680 nm and emission 615 nm) were recorded on a Perkin Elmer EnVision 2104 Multilabel reader. The raw data was converted to the relative amount of ternary complex formation by normalization to the signal generated by His-tagged GST protein only. The final data points were plotted and the curves were fit using non-linear regression using GraphPad Prism software.

IRAK4 [2] = target: T1, IRAK4 (Homo sapiens, UniProt Q9NWZ3); test: OCI-LY-10 degradation assay (western blot, % IRAK4 degraded after 4 hours); type: cell-based; design: endogenous in cells; host or cells: OCI-LY10; conditions: OCI-LY10 cells, IRAK4 degraded after 4 hours, western blot
T1 sequence (Q9NWZ3 1-460): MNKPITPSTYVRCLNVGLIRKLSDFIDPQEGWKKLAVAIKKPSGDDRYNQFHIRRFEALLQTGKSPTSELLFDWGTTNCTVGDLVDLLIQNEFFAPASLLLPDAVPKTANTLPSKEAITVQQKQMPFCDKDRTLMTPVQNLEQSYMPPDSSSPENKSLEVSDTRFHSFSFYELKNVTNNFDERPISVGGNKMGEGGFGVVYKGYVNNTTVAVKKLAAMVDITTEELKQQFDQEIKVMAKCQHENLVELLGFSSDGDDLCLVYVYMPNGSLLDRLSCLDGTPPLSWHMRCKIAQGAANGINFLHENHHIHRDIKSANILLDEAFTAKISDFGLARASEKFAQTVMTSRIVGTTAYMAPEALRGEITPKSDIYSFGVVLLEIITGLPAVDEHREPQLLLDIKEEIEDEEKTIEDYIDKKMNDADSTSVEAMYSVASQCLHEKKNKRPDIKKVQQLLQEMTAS
Outline: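 OCI-LY10 cells (RPMI-1640, 20% FBS, 55 μM 2-ME) treated with compound at 0.003-10 μM final for 4 h at 37° C, then lysed in RIPA buffer. IRAK4 level read by fluorescent western blot (20-25 μg protein) and binned as % degraded: A >50%, B >20-50%, C <20%.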

IRAK4 [3] = target: T1, IRAK4; test: PBMC degradation assay (western blot, % IRAK4 degraded after 4 hours); type: cell-based; conditions: human PBMCs
Description: Protocol summary of PBMC degradation studies from compound treatment through quantitation.
PBMC culture medium: Human peripheral blood mononuclear cells (PBMCs): RPMI+10% FBS (Heat-inactivated)+1% P/S.
Cells were cultured at a minimum of 2.5×10^6 c/mL. • PBMCs were incubated @ 37° C./5% CO2 and allowed to rest overnight. • Following overnight recovery, a cell count/viability assessment by trypan blue exclusion was performed. Cells densities were adjusted back to 2.5×10^6 c/mL (proceed with plating only if viability >80%). • In a 6 well plate, 2.0 mL of cells were added to each well for a minimum of 5×10^6 CT per treatment condition. Compounds dilutions were prepared from 20 mM stock and were added at a final 1000× dilution (0.1% DMSO concentration). • At the end of treatment, cells were harvested and spun @ 1800 rpm for 5 min. 1×PBS wash and spun again @ 1800 rpm for 5 min. Cell pellets were frozen and stored at −80° C. until further processing. • Lysates were generated by resuspending in lysis buffer. Protein quantification was performed with a BCA kit. • 20 μg of protein were loaded per lane and run on a 26-well 4-12% Bis-Tris SDS-page gel. • Transfers were performed on PVDF membranes using the BioRad Mixed MW turbo program for 7 min. • Membranes were blocked for one hour on a rocker at room temperature. • Primary antibodies were incubated overnight at 4° C. on a rocker. • Membranes were washed 3×TBST, 5 min each. • Secondaries were added and incubated for one hour on a rocker at room temperature. • Membranes were washed 3×TBST, 5 min each and rinsed well with deionized H2O. Membranes were scanned using the Licor Odessey CLx and bands were quantified using Image Studio Lite Version 5.2 software.
PBMC results at 4 hours. The letter codes indicate the percentage of IRAK4 degraded after 4 hours: A (>50% degradation), B (>20-50% degradation) and C (<20% degradation)

CRBN-DDB1 / GST-IRAK4 ternary complex, sequence (Q96SW2 whole entry, one chain of several): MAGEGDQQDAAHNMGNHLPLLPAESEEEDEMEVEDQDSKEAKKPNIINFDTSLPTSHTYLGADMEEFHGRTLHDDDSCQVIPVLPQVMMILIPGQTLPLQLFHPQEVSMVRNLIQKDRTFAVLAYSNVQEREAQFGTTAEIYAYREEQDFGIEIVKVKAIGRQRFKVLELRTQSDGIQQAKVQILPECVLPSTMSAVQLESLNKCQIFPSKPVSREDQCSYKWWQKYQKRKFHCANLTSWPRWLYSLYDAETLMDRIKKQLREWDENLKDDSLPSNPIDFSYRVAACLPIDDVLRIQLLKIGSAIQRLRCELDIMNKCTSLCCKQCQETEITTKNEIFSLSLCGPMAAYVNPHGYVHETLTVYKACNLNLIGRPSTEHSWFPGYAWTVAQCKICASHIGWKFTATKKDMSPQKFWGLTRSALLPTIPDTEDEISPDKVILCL
CRBN-DDB1 / GST-IRAK4 ternary complex, sequence (Q16531 whole entry partner, one chain of several): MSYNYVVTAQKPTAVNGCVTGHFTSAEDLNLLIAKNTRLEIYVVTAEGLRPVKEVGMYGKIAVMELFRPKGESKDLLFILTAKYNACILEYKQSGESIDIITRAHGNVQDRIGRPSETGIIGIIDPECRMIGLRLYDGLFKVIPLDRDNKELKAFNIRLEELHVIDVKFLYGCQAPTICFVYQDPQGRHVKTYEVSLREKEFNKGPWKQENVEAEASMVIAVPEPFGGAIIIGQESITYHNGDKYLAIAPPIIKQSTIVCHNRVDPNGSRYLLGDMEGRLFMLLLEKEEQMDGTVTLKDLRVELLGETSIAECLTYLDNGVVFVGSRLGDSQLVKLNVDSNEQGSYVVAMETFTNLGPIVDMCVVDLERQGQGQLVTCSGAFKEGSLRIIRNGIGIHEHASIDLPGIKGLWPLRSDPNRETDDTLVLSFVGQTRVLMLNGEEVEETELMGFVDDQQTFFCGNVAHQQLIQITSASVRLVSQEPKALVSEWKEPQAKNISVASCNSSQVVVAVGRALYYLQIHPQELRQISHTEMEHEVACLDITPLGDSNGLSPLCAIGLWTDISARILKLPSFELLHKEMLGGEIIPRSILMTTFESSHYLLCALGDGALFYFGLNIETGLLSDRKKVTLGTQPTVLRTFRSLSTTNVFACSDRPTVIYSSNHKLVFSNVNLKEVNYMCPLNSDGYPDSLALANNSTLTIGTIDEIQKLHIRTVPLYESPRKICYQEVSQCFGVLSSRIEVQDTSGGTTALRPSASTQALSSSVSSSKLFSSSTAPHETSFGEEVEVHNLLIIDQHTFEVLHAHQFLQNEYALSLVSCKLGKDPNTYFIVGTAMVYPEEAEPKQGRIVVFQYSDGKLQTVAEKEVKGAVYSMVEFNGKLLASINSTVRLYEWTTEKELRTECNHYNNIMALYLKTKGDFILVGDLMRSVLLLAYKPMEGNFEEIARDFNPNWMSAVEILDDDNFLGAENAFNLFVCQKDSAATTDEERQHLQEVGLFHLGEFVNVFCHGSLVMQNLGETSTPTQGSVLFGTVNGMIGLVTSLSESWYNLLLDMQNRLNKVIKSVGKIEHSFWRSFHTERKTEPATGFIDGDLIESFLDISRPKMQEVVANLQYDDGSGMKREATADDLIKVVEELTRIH

SMILES: NC(=O)c1nn(-c2ccc(C(=O)NCCc3cn(CCCNc4cccc5c4C(=O)N(C4CCC(=O)NC4=O)C5=O)nn3)cc2)cc1NC(=O)c1coc(-c2ccnc(NCC(F)(F)F)c2)n1 (stereo not shown) [I-181, N-[3-carbamoyl-1-[4-[2-[1-[3-[[2-(2,6-dioxo-3-piperidyl)-1,3-dioxo-isoindolin-4-yl]amino]propyl]triazol-4-yl]ethylcarbamoyl]phenyl]pyrazol-4-yl]-2-[2-(2,2,2-trifluoroethylamino)-4-pyridyl]oxazole-4-carboxamide]
PBMC % IRAK4 Degradation (IRAK4 [3]): B (>20-50% degradation)

SMILES: NC(=O)c1nn(-c2ccc(C(=O)NCCCn3cc(CNc4cccc5c4C(=O)N(C4CCC(=O)NC4=O)C5=O)nn3)cc2)cc1NC(=O)c1coc(-c2ccnc(NCC(F)(F)F)c2)n1 (stereo not shown) [I-183, N-[3-carbamoyl-1-[4-[3-[4-[[[2-(2,6-dioxo-3-piperidyl)-1,3-dioxo-isoindolin-4-yl]amino]methyl]triazol-1-yl]propylcarbamoyl]phenyl]pyrazol-4-yl]-2-[2-(2,2,2-trifluoroethylamino)-4-pyridyl]oxazole-4-carboxamide]
PBMC % IRAK4 Degradation (IRAK4 [3]): B (>20-50% degradation)

SMILES: O=C1CCC(N2C(=O)c3cccc(NCCOCCOCCNCc4ccc(-n5cc(NC(=O)c6coc(-c7ccnc(NCC8CC8)c7)n6)c(C(F)(F)F)n5)cc4)c3C2=O)C(=O)N1 (stereo not shown) [I-185, 3-2-(2-((Cyclopropylmethyl)amino)pyridin-4-yl)-N-(1-(4-(((2-(2-(2-((2-(2,6-dioxopiperidin-3-yl)-1,3-dioxoisoindolin-4-yl)amino)ethoxy)ethoxy)ethyl)amino)methyl)phenyl)-3-(trifluoromethyl)-1H-pyrazol-4-yl)oxazole-4-carboxamide]
PBMC % IRAK4 Degradation (IRAK4 [3]): A (>50% degradation)

Next, values leading:

Average % Ternary Complex (N = 2) ([1]; compound concentration 1.00E−07 M): 4.16% | Average % Ternary Complex (N = 2) ([1]; compound concentration 1.25E−08 M): 0.76% | Average % Ternary Complex (N = 2) ([1]; compound concentration 1.28E−05 M): 0.61% | Average % Ternary Complex (N = 2) ([1]; compound concentration 1.60E−06 M): 0.67% | Average % Ternary Complex (N = 2) ([1]; compound concentration 2.00E−07 M): 6.15% | Average % Ternary Complex (N = 2) ([1]; compound concentration 2.50E−08 M): 1.05% | Average % Ternary Complex (N = 2) ([1]; compound concentration 3.20E−06 M): 0.57% | Average % Ternary Complex (N = 2) ([1]; compound concentration 4.00E−07 M): 4.22% | Average % Ternary Complex (N = 2) ([1]; compound concentration 5.00E−08 M): 2.54% | Average % Ternary Complex (N = 2) ([1]; compound concentration 6.25E−09 M): 0.55% | Average % Ternary Complex (N = 2) ([1]; compound concentration 6.40E−06 M): 0.5% | Average % Ternary Complex (N = 2) ([1]; compound concentration 8.00E−07 M): 1.25% | OCI-LY10 % IRAK4 Degradation (IRAK4 [2]): B (>20-50% degradation)
SMILES: NC(=O)c1nn(-c2cccc(C(=O)NCCOCCOCCNc3cccc4c3C(=O)N(C3CCC(=O)NC3=O)C4=O)c2)cc1NC(=O)c1coc(-c2ccnc(NCC(F)(F)F)c2)n1 (stereo not shown) [I-135]

PBMC % IRAK4 Degradation (IRAK4 [3]): C (<20% degradation)
SMILES: NC(=O)c1nn(-c2ccc(C(=O)NCCC#CC#CCCNc3cccc4c3C(=O)N(C3CCC(=O)NC3=O)C4=O)cc2)cc1NC(=O)c1coc(-c2ccnc(NCC(F)(F)F)c2)n1 (stereo not shown) [I-179, N-[3-carbamoyl-1-[4-[8-[[2-(2,6-dioxo-3-piperidyl)-1,3-dioxo-isoindolin-4-yl]amino]octa-3,5-diynylcarbamoyl]phenyl]pyrazol-4-yl]-2-[2-(2,2,2-trifluoroethylamino)-4-pyridyl]oxazole-4-carboxamide]

PBMC % IRAK4 Degradation (IRAK4 [3]): A (>50% degradation)
SMILES: NC(=O)c1nn(-c2ccc(C(=O)NCc3cn(CCCNc4cccc5c4C(=O)N(C4CCC(=O)NC4=O)C5=O)nn3)cc2)cc1NC(=O)c1coc(-c2ccnc(NCC(F)(F)F)c2)n1 (stereo not shown) [I-180, N-[3-carbamoyl-1-[4-[[1-[3-[[2-(2,6-dioxo-3-piperidyl)-1,3-dioxo-isoindolin-4-yl]amino]propyl]triazol-4-yl]methylcarbamoyl]phenyl]pyrazol-4-yl]-2-[2-(2,2,2-trifluoroethylamino)-4-pyridyl]oxazole-4-carboxamide]

PBMC % IRAK4 Degradation (IRAK4 [3]): C (<20% degradation)
SMILES: O=C1CCC(N2C(=O)c3cccc(NCCOCCOCCNCc4cccc(-n5cc(NC(=O)c6coc(-c7ccnc(NCC8CC8)c7)n6)c(C(F)(F)F)n5)c4)c3C2=O)C(=O)N1 (stereo not shown) [I-186, 2-[2-(Cyclopropylmethylamino)-4-pyridyl]-N-[1-[3-[[2-[2-[2-[[2-(2,6-dioxo-3-piperidyl)-1,3-dioxo-isoindolin-4-yl]amino]ethoxy]ethoxy]ethylamino]methyl]phenyl]-3-(trifluoromethyl)pyrazol-4-yl]oxazole-4-carboxamide]

Source: patent publication US10874743B2, “IRAK degraders and uses thereof” (Kymera Therapeutics, Inc., priority 2017, dated 2020)
